Common to all, as to format: biochemical
Assay [1] has as its target Thrombin (Homo sapiens, UniProt P00734). Briefly: Thrombin amidolytic assay (chromogenic substrate Chromozym TH). Conditions: room temperature, pH 7.5, 5 min preincubation; read-out: Inhibitory Activity (IC50) Thrombin IIa. On the procedure: (§1) The compounds of the present invention are dissolved in buffer to give solutions containing concentrations such that assay concentrations range from about 0 to about 100 μM. In the assays for thrombin, prothrombinase and factor Xa, a synthetic chromogenic substrate is added to a solution containing test compound and the enzyme of interest and the residual catalytic activity of that enzyme is determined spectrophotometrically. The IC50 of a compound is determined from the substrate turnover. The IC50 is the concentration of test compound giving about 50% inhibition of the substrate turnover.
(§2) The factor Xa and thrombin assays are performed at room temperature, in 0.02 M Tris.HCl buffer, pH 7.5, containing 0.15 M NaCl. The rates of hydrolysis of the para-nitroanilide substrate S-2765 (Chromogenix) for factor Xa, and the substrate Chromozym TH (Boehringer Mannheim) for thrombin following preincubation of the enzyme with inhibitor for 5 minutes at room temperature, and are determined using the Softmax 96-well plate reader (Molecular Devices), monitored at 405 nm to measure the time dependent appearance of p-nitroaniline.

The target of assay [2] is Prothrombinase (Homo sapiens, UniProt P00742). Put plainly: Prothrombinase inhibition assay, plasma free system. Particulars: factor Xa 0.5 nM, factor Va 2 nM, PS:PC, 5 min preincubation; read-out: Inhibitory Activity (IC50) Prothrombinase IIase. The method, then:
as §1
The prothrombinase inhibition assay is performed in a plasma free system with modifications to the method described by Sinha, U. et al., Thromb. Res., 75, 427-436 (1994). Specifically, the activity of the prothrombinase complex is determined by measuring the time course of thrombin generation using the p-nitroanilide substrate Chromozym TH. The assay consists of preincubation (5 minutes) of selected compounds to be tested as inhibitors with the complex formed from factor Xa (0.5 nM), factor Va (2 nM), phosphatidyl serine:phosphatidyl choline (25:75, 20 μM) in 20 mM Tris.HCl buffer, pH 7.5, containing 0.15 M NaCl, 5 mM CaCl2 and 0.1% bovine serum albumin. […] The rate of substrate cleavage is monitored at 405 nm for two minutes. […]

The target in assay [3] is Factor Xa (Homo sapiens, UniProt P00742). Briefly: Factor Xa amidolytic assay (chromogenic substrate S-2765). Conditions: room temperature, pH 7.5, 5 min preincubation; read-out: Inhibitory Activity (IC50) Factor Xa Xa. On the procedure: as §1, §2
Chain of Factor Xa (P00742 235-488 limits assumed): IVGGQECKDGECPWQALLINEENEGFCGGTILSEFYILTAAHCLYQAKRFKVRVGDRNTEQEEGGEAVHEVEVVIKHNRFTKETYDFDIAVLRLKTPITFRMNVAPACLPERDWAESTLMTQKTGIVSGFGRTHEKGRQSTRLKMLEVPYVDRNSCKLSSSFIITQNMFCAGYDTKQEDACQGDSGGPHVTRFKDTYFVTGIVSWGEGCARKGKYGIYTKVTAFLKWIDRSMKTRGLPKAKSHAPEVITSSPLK
Chain of Factor Xa (P00742 41-179 limits assumed): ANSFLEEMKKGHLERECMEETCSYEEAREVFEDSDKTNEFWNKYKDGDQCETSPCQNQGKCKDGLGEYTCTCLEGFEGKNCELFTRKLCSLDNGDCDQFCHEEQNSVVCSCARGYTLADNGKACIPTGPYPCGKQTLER

Chain of Prothrombinase (P00742 235-488 limits assumed): as the sequence (P00742 235-488 limits assumed) above
Chain of Prothrombinase (P00742 41-179 limits assumed): as the sequence (P00742 41-179 limits assumed) above
Chain of Prothrombinase (P12259 29-737 partner limits assumed): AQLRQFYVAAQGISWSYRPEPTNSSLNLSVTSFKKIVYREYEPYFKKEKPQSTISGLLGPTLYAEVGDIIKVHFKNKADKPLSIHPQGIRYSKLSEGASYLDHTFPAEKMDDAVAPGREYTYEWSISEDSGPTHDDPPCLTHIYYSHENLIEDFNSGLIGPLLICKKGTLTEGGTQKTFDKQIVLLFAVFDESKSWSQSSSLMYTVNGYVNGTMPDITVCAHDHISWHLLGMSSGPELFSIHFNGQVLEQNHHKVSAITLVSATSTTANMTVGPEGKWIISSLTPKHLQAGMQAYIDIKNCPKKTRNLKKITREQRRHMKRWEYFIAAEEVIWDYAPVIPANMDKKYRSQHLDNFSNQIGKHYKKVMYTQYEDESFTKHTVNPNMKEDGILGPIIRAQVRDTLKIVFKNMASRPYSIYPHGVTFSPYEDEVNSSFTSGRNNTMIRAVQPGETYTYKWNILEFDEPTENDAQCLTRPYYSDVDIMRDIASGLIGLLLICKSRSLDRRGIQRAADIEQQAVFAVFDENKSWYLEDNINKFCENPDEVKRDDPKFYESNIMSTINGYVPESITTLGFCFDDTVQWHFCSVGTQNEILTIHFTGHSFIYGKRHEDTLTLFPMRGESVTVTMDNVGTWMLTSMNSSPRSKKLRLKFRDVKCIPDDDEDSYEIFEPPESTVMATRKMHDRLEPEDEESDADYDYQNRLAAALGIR
Chain of Prothrombinase (P12259 1574-2224 partner limits assumed): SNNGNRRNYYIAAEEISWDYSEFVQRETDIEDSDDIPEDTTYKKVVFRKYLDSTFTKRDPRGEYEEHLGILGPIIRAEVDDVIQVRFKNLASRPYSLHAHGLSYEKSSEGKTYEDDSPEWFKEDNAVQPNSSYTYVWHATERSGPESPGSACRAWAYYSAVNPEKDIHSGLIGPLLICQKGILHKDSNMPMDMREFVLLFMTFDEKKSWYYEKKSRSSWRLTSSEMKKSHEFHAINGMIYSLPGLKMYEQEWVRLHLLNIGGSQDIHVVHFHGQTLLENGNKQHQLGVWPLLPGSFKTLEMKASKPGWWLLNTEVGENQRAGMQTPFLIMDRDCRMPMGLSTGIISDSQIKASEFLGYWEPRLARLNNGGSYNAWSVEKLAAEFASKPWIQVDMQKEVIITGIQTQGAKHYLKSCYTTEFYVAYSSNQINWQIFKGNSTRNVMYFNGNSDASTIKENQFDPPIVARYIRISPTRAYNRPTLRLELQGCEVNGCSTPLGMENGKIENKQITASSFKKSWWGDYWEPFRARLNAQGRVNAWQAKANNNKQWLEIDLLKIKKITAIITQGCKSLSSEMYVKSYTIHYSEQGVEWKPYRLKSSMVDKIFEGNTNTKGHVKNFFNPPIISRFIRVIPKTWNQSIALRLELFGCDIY

Regarding `COC(=O)C(Cc1cccc(C(=N)N)c1)NC(=O)c1ccc(OC2CCN(C(C)=N)CC2)cc1` (stereo not drawn), the figures for the IC50 in assay [1], in assay [2] and in assay [3] were 270 µM, 4 µM and 0.201 µM, respectively.

For `CC(=N)N1CCC(Oc2ccc(C(=O)NCc3cccc(C(=N)N)c3)cc2)CC1`, the IC50 (in general, the midpoint of a concentration-inhibition curve) in assay [1] stood at 139 µM; in assay [2] it was 20 µM; in assay [3] it was 0.059 µM.

These data come from US20020065303A1, “Bivalent phenylene inhibitors of factor Xa” (priority 2000, published 2002).
